± gives the standard deviation of the averaged measurements.
Tests used:
IMATINIB = compound: Cc1ccc(NC(=O)c2ccc(CN3CCN(C)CC3)cc2)cc1Nc1nccc(-c2cccnc2)n1 [IMATINIB]; test: surviving fraction relative to DMSO-only wells; higher = less growth inhibition; settings: exposure time: 5 days
Method in brief: (§1)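 After seeding at 250–500 cells per well in 384-well plates and a 24-hour wait, log-phase tumour cell lines were exposed without interruption for five days to inhibitors at 0.5, 1, 5, 10, 50, 100, 500 and 1000 nM. CellTiter-Glo luminescence was recorded after 10 minutes at room temperature. Viability is reported as surviving fraction, the luminescence normalised to the median of DMSO-only wells.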

MK-1775 = compound: C=CCn1c(=O)c2cnc(Nc3ccc(N4CCN(C)CC4)cc3)nc2n1-c1cccc(C(C)(C)O)n1 [MK-1775]; test: as above; settings: exposure time: 5 days
Method in brief: as §1

Test System	surviving fraction (IMATINIB; 0.5 nM)	surviving fraction (IMATINIB; 1 nM)	surviving fraction (IMATINIB; 500 nM)	surviving fraction (IMATINIB; 1000 nM)	surviving fraction (MK-1775; 0.5 nM)	surviving fraction (MK-1775; 1 nM)	surviving fraction (MK-1775; 5 nM)	surviving fraction (MK-1775; 10 nM)	surviving fraction (MK-1775; 50 nM)	surviving fraction (MK-1775; 100 nM)	surviving fraction (MK-1775; 500 nM)	surviving fraction (MK-1775; 1000 nM)	surviving fraction (IMATINIB; 5 nM)	surviving fraction (IMATINIB; 50 nM)	surviving fraction (IMATINIB; 100 nM)	surviving fraction (IMATINIB; 10 nM)
SG28 HEADNECK	1.25 ± 0.093	1.11 ± 0.12	1.18 ± 0.11	1.14 ± 0.096	0.987 ± 0.18	1.11 ± 0.066	1.14 ± 0.12	1.04 ± 0.046	0.698 ± 0.0084	0.549 ± 0.032	0.441 ± 0.034	0.558 ± 0.11	–	–	–	–
SCC003 HEADNECK	1.1 ± 0.07	1.1 ± 0.037	1.13 ± 0.062	1.12 ± 0.075	1.12 ± 0.07	1.08 ± 0.11	1.1 ± 0.12	1.11 ± 0.06	0.927 ± 0.026	0.874 ± 0.05	0.421 ± 0.08	0.247 ± 0.019	1.15 ± 0.036	1.09 ± 0.033	1.18 ± 0.045	–
SIHA CERVIX	1.1 ± 0.04	1.1 ± 0.054	1.12 ± 0.076	–	1.08 ± 0.03	1.04 ± 0.054	1.09 ± 0.066	1.08 ± 0.039	1.17 ± 0.085	1.16 ± 0.057	0.277 ± 0.049	0.0987 ± 0.013	–	1.15 ± 0.073	1.17 ± 0.054	1.09 ± 0.065
SYO1 SYNOVIAL	1.03 ± 0.05	1.02 ± 0.028	0.88 ± 0.056	0.888 ± 0.023	1.01 ± 0.014	0.977 ± 0.053	1 ± 0.014	0.9618 ± 0.0076	0.658 ± 0.033	0.317 ± 0.076	0.473 ± 0.11	0.0491 ± 0.0039	0.987 ± 0.037	0.921 ± 0.035	0.898 ± 0.017	0.955 ± 0.031
HT1080 SOFT TISSUE	1.045 ± 0.01	1.074 ± 0.0023	–	–	1.02 ± 0.03	1.01 ± 0.017	0.992 ± 0.019	1.02 ± 0.023	0.638 ± 0.025	0.277 ± 0.012	0.113 ± 0.015	0.091 ± 0.0089	1.1 ± 0.048	1.04 ± 0.036	1.03 ± 0.033	1.07 ± 0.021
SG43 HEADNECK	1.16 ± 0.41	1.07 ± 0.36	1.11 ± 0.13	1.16 ± 0.33	1.22 ± 0.14	1.01 ± 0.11	1.02 ± 0.084	0.823 ± 0.063	0.906 ± 0.072	0.911 ± 0.06	0.783 ± 0.14	0.549 ± 0.14	0.895 ± 0.2	1.01 ± 0.2	0.901 ± 0.27	1.03 ± 0.23
MCF7 BREAST	0.988 ± 0.064	–	1.05 ± 0.043	0.986 ± 0.014	0.886 ± 0.021	0.894 ± 0.013	0.864 ± 0.0098	0.873 ± 0.042	0.869 ± 0.052	0.856 ± 0.028	0.736 ± 0.014	0.602 ± 0.035	0.97 ± 0.03	1.04 ± 0.018	1.01 ± 0.033	0.955 ± 0.062
HELA CERVIX	1.13 ± 0.034	1.04 ± 0.039	1.14 ± 0.086	1.09 ± 0.043	1.04 ± 0.025	1.07 ± 0.045	1.02 ± 0.064	0.993 ± 0.059	1.15 ± 0.039	1.113 ± 0.0066	0.0972 ± 0.0083	0.0538 ± 0.0035	1.03 ± 0.056	–	1.1 ± 0.016	–
VP229 BREAST	1.29 ± 0.17	1.22 ± 0.091	1.16 ± 0.064	1.27 ± 0.12	1.13 ± 0.14	1.01 ± 0.044	1.01 ± 0.056	1.07 ± 0.063	1.02 ± 0.034	0.754 ± 0.093	0.41 ± 0.056	0.261 ± 0.013	1.12 ± 0.098	1.35 ± 0.1	–	1.2 ± 0.3
NY BONE	1.08 ± 0.021	1.08 ± 0.022	1.04 ± 0.043	1.03 ± 0.019	1.04 ± 0.056	1.01 ± 0.014	1.1 ± 0.017	1.03 ± 0.013	0.638 ± 0.04	0.254 ± 0.016	0.113 ± 0.0076	0.0633 ± 0.0021	1.12 ± 0.051	1.107 ± 0.0076	1.11 ± 0.025	1.1 ± 0.013
RDES SOFT TISSUE	1.37 ± 0.084	1.45 ± 0.048	1.24 ± 0.13	1.18 ± 0.082	1.17 ± 0.088	1.09 ± 0.12	1.1 ± 0.077	1.08 ± 0.13	0.871 ± 0.3	1.15 ± 0.18	0.406 ± 0.055	0.187 ± 0.036	1.21 ± 0.1	1.12 ± 0.1	1.21 ± 0.1	1.22 ± 0.019
OSHN BONE	1.13 ± 0.024	1.126 ± 0.0095	–	1.1 ± 0.051	1.06 ± 0.03	1.06 ± 0.026	1.08 ± 0.04	1.05 ± 0.039	1.08 ± 0.04	1.06 ± 0.046	0.143 ± 0.016	0.0503 ± 0.0025	1.1 ± 0.033	1.16 ± 0.013	1.14 ± 0.017	1.12 ± 0.012
CAL120 BREAST	0.995 ± 0.073	0.978 ± 0.041	1.04 ± 0.044	0.992 ± 0.07	0.9598 ± 0.0037	0.944 ± 0.011	0.985 ± 0.026	0.9663 ± 0.0029	0.902 ± 0.016	0.783 ± 0.027	0.2 ± 0.015	0.12 ± 0.018	0.994 ± 0.091	1.03 ± 0.021	0.97 ± 0.045	–
C33A CERVIX	0.921 ± 0.058	0.999 ± 0.073	1.05 ± 0.022	1.08 ± 0.045	0.908 ± 0.063	0.986 ± 0.15	1 ± 0.053	0.962 ± 0.11	0.895 ± 0.073	0.491 ± 0.025	0.043 ± 0.02	0.0347 ± 0.0064	–	1.15 ± 0.08	–	1.09 ± 0.1
HSSYII SYNOVIAL	1 ± 0.1	0.967 ± 0.026	0.971 ± 0.063	0.948 ± 0.024	1.05 ± 0.034	1 ± 0.03	1.002 ± 0.0055	0.884 ± 0.012	0.628 ± 0.035	0.12 ± 0.0027	0.147 ± 0.064	0.0442 ± 0.0045	–	0.966 ± 0.021	0.998 ± 0.033	1.04 ± 0.049
HUO3N1 BONE	1.06 ± 0.039	0.9677 ± 0.0058	0.892 ± 0.038	0.878 ± 0.062	0.979 ± 0.036	0.941 ± 0.032	1 ± 0.034	1.01 ± 0.039	0.995 ± 0.02	0.843 ± 0.041	0.348 ± 0.014	0.204 ± 0.015	1.072 ± 0.0071	–	–	1.04 ± 0.027
ZR751 BREAST	1.23 ± 0.15	1.15 ± 0.14	1.13 ± 0.065	1.07 ± 0.14	1.18 ± 0.14	1 ± 0.16	0.999 ± 0.19	1.04 ± 0.15	1.01 ± 0.16	1.04 ± 0.17	0.733 ± 0.1	0.622 ± 0.086	1.05 ± 0.1	1.16 ± 0.11	1.11 ± 0.063	1.17 ± 0.23
BT20 BREAST	1.21 ± 0.064	1.22 ± 0.12	1.45 ± 0.19	1.46 ± 0.035	1.12 ± 0.23	1.05 ± 0.19	1.06 ± 0.17	1.04 ± 0.21	1.09 ± 0.3	0.972 ± 0.21	0.162 ± 0.02	0.0827 ± 0.021	–	–	1.14 ± 0.033	1.16 ± 0.062
JIMT1 BREAST	1.04 ± 0.047	1 ± 0.051	1.03 ± 0.056	1.03 ± 0.045	1.02 ± 0.021	0.987 ± 0.016	0.989 ± 0.01	0.991 ± 0.012	0.4405 ± 0.0039	0.227 ± 0.0077	0.0768 ± 0.0097	0.0532 ± 0.0013	1.03 ± 0.029	–	1.08 ± 0.039	0.99 ± 0.028
PCI30 HEADNECK	–	0.943 ± 0.017	1.06 ± 0.067	0.981 ± 0.038	0.926 ± 0.1	0.937 ± 0.054	1.03 ± 0.036	1.05 ± 0.16	0.884 ± 0.069	0.745 ± 0.021	0.195 ± 0.02	0.137 ± 0.0085	–	1.13 ± 0.042	1.13 ± 0.024	1.08 ± 0.11
SAOS2 BONE	1.14 ± 0.031	1.14 ± 0.056	1.16 ± 0.029	1.17 ± 0.097	1.1 ± 0.019	1.01 ± 0.057	1.05 ± 0.091	1.07 ± 0.055	0.887 ± 0.033	0.637 ± 0.027	0.176 ± 0.024	0.06 ± 0.0087	–	1.22 ± 0.079	1.2 ± 0.075	1.22 ± 0.063
MDAMB157 BREAST	–	1.01 ± 0.028	0.956 ± 0.018	0.855 ± 0.11	0.835 ± 0.1	0.95 ± 0.075	0.94 ± 0.075	0.966 ± 0.096	0.522 ± 0.045	0.278 ± 0.067	0.0617 ± 0.015	0.0613 ± 0.0072	1.02 ± 0.018	–	0.939 ± 0.021	–

From the supplement of paper PMC6045584
